Source: patent US20200370080A1, “ENANTIONSELECTIVE ENZYMATIC SULFOXIDATION OF CHIRAL ARYLSULFIDES” (Bayer Aktiengesellschaft, priority 2017, published 2020)

B1: styrene monooxygenase subunits StyA and StyB: two-component styrene monooxygenase (SEQ ID NO 5 and 6) expressed in E. coli JM101 from the pStyAB_ADP1_lac vector (protein, listed as Acinetobacter baylyi)
chain 1: MRRIAIVGAGQSGLQLGLSLLDTGYDVTIVTNRTADQIRQGKVMSSQCMFHTALQTERDVGLNFWEEQCPAVEGIGFTLVSPETGKPAFSWSARLERYAQSVDQRVKMPYWIEEFERRGGKLIIQDVGIDELEQLTTEYELVLLAAGKGEVVKQFVRDDERSTFDKPQRALALTYVTGMKPMSPYSRVTFNVIPGVGEYFCFPALTVTGPCEIMVFEGIPGGPMDCWQDAKTPEQHLQMSKDILNTYLPWEAERCENIEITDAGGYLAGRFPPSVRKPILTLPSGRQVFGMADALVVNDPITGQGSNNAAKCSKIYFDAILAHDTQSFTPEWMQQTFERYWSYAEKVVAWTNSLLVPPQPQMIDVLAAASQNQAIASTIANNFDDPRNFSPWWFDAEQAQHFIESKSCQKVA
chain 2: MNINTSHELGLKPIDTENPREIRNLLGQFATGVTVITTRGRDGRKIGMTANSFSSLSLDPPLILWSLSKTAPSLPDFTEAEYFAIHMLAQEHHSLSGHFARGSEDKFASIAHRECERGLPLLEDVLATLVCKNINQYEGGDHLIFIGQIEHYQQRIGEPLVFHAGKYRIAAEHPELSA

Key:
E. coli cells = test: toxicity of educt and product: growth of the production strain at different concentrations; type: cell-based
Description: A person skilled in the art knows how to determine the maximum rate at which the enzyme can process the substrate and thus how much substrate can be added to a given reaction continuously or in a given time interval. To understand the toxicity of educt and product the growth rate of the production strain is determined in presence of different educt and product concentration.

[1] = test system: styrene monooxygenase StyA/StyB from A. baylyi; test: in vitro sulfoxidation of arylsulfide substrates by purified StyA (oxygenase) with excess StyB (reductase), HPLC analysis; type: biochemical, Acinetobacter baylyi sp. ADP1; conditions: for ee %: enantiomeric excess of sulfoxide formed, abs. configuration S; for yield %): enzymatic conversion to sulfoxide, 2 mM substrate (1 mM in case of clouding), purified StyA with excess StyB
Description: In order to do so, the StyA unit from Acinetobacter sp. ADP1 was cloned into a pET-vector inducible with IPTG and expressed in E. coli BL21 pLysS grown in LB medium (10 g/l tryptone, 5 g/l yeast extract, 10 g/l or 20 g/l NaCl, 100 μg/ml ampicillin, 50 μg/ml Chloramphenicol). For the expression a 5 ml overnight culture was used as inoculum for a fermenter with […] or a flask with 500 ml medium. The cells were cultured at 37° C. until the culture reached an optical density of 0.6 which was the threshold for induction of recombinant gene expression using IPTG (0.1 mM). The culture was performed for another 18 h at 20° C. […] The cells were harvested and the cellular walls were disrupted using a French press. […] The target protein was purified for the subsequent characterization.
The StyB unit from Acinetobacter baylyi sp. ADP1 was expressed in a similar fashion.
In order to test the activity the StyB unit (reductase) was employed in excess to supply the StyA unit (oxygenase) with sufficient reduced FAD. Therefore, NADH was produced by a format-dehydrogenase from format and NAD in the respective enzymatic reaction.
The enzyme conversion rate was probed every minute for 15 min for the kinetic analysis. If possible, i.e. soluble, 2 mM substrate were employed. In case of clouding 1 mM substrate was employed. The substrate was dissolved in ethanol. Reactions in the probes were stopped with a 1:1 mixture of ice-cold methanol and acetonitrile and afterwards analyzed using HPLC.
The educt and the product were analyzed on an Agilent 1100 HPLC device.

[2] = resting cell activity of whole-cell biocatalyst (E. coli JM101 pStyAB_ADP1_lac); type: cell-based; conditions: E. coli JM101, M9 minimal medium, 4.8 h after induction with 1 mM IPTG
Description: In detail, the styrene monooxygenase subunits StyA and StyB were expressed in E. coli JM101 cultivated in M9 minimal medium from the pStyAB_ADP1_lac vector. To find the maximum specific activity samples were taken after previously defined time points after addition of the inducer (1 mM IPTG). Cells were retrieved from the actively growing culture and used for the determination of the resting cell activity. As shown in FIG. 3 the specific activity increased steadily from the time point of induction and reached a maximum of 450±30 U/gcdw 4.8 h after induction.
In detail, the specific activity was quantified as follows: StyA and StyB were expressed in E. coli JM101 carrying the pStyAB_ADP1_lac vector. Cells were cultivated in M9 minimal medium and induced at an OD of 0.6-0.8. […]
Successful separation of the product i.e. the S-enantiomer of 2-chloro-4-(methylsulfinylmethyl)pyridine was achieved on a Dionex UltiMate 3000 HPLC system (Thermo Scientific) equipped with a non-polar HPLC column with C18 matrix (Accucore C18, 3×150 mm, 2.6 μm particle size, Thermo Scientific). […] The organic compounds were detected by absorption using diode array detector (DAD) at a wavelength of 210 nm. […]

Molecule | ee % [1] [%] | yield %) [1] [%] | also measured
C[S@+]([O-])Cc1ccnc(Cl)c1 [2-Chloro-4-((methyl-S-sulfinyl)methyl)pyridine] |  |  | toxicity of the product compared with the substrate (E. coli cells; E. coli cells): significantly lower
CSCc1ccnc(Cl)c1 [2-chloro-4-(methylsulfanylmethyl)pyridine] |  |  | substrate concentration that entirely inhibited the growth of the cells (E. coli cells; E. coli cells expressing StyA and StyB): above 10 mM
CSc1ccccc1 [Ph—S—CH3, phenyl methyl sulfide] | 99.3 | 48 | 
C=CSc1ccccc1 [Ph—S—CH═CH2, phenyl vinyl sulfide] | 99.7 | 40 | 
CSc1ccc(Br)cc1 [p(Br)—Ph—S—CH3, 4-bromophenyl methyl sulfide] | 98.1 | 58 | 
CSc1ccc(C)cc1 [p(CH3)—Ph—S—CH3, 4-methylphenyl methyl sulfide] | 97.6 | 42 | 
CSc1ccc(Cl)cc1 [p(Cl)—Ph—S—CH3, 4-chlorophenyl methyl sulfide] | 95.5 | 34 | 
CSc1ccc(F)cc1 [p(F)—Ph—S—CH3, 4-fluorophenyl methyl sulfide] | 99.0 | 55 | 
B1 |  |  | maximum specific activity [2]: 450±30 U/gcdw
